Measured values: patent US10738028B2, “Spiro three-membered ring, spiro five-membered ring peptide deformylase inhibitor and use thereof in antibacteria and anti-tumor” (priority 2016, dated 2020)

Tests used:
Assay type in all cases: cell-based
[1] = test system: A549 lung cancer cell line; experiment: CCK-8 proliferation inhibition; conditions: concentration of 30 μM
In short: (§1)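 Plating at 2000 cells/well, then incubation overnight at 37° C. Next, a range of compound concentrations for 72 hours (control 1‰ DMSO). Finally, medium decanted and CCK-8 diluted 1:10 added.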

[2] = test system: MGC-803 gastric cancer cell line; experiment: CCK-8 proliferation inhibition; conditions: concentration of 30 μM
In short: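 Using media specific to each line (1640 for MGC-803 and Jurkat, F12 for PC3, DMEM high glucose for MCF-7, each with 10% newborn bovine serum), cells at 2000/well were treated for 72 h with serially formulated compounds, then assessed with CCK-8 diluted 1:10.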

[3] = test system: BEL-7402 liver cancer cell line; experiment: CCK-8 proliferation inhibition; conditions: concentration of 30 μM, 72 hours, 30 µM
In short: as §1

[4] = test system: Enterococcus faecium (EFM); experiment: MIC, two-fold agar dilution (CLSI), clinical isolates
In short: (§2)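 Susceptibility was tested using CLSI two-fold agar dilution against the strains examined.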

[5] = test system: methicillin-resistant Staphylococcus aureus (MRSA); experiment: as above
In short: as §2

[6] = test system: Moraxella catarrhalis (BCA); experiment: as above
In short: as §2

[7] = test system: Streptococcus pneoumoniae (SPN); experiment: as above
In short: as §2

[8] = test system: methicillin-sensitive Staphylococcus epidermidis (MSSE); experiment: as above
In short: as §2

[9] = test system: Escherichia coli (including ESBLs, non-ESBLs); experiment: as above
In short: as §2

[10] = test system: Enterococcus faecalis (EFA); experiment: as above
In short: as §2

[11] = test system: methicillin-resistant Staphylococcus epidermidis (MRSE); experiment: as above
In short: as §2

[12] = test system: methicillin-sensitive Staphylococcus aureus (MSSA); experiment: as above
In short: as §2

[13] = test system: HCT-116 colorectal cancer cell line; experiment: CCK-8 proliferation inhibition; conditions: concentration of 30 μM, 72 hours, CCK-8
In short: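 Proliferation over 72 hours of compound treatment was measured with CCK-8 against a 1‰ DMSO control.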

O=C(C[C@@H](CC1CCCC1)C(=O)N1CC2(CC2)C[C@H]1C(=O)Nc1ccncn1)NO [Example 63]
inhibition at 30 µM ([1]; Homo sapiens, A549, 72 h): > 50% | Inhibition of proliferation, Lung cancer A549 ([1]; 72 hours, 30 µM): 63% | inhibition at 30 µM ([2]; Homo sapiens, MGC-803, 72 h): > 50% | Inhibition of proliferation, Gastric cancer MGC-803 ([2]; 72 hours, 30 µM): 58% | Inhibition of proliferation, Liver cancer BEL-7402 [3]: 74% | Anti-bacterial activity (MIC), strain EFM 15-1 ([4]; clinical isolate EFM 15-1): > 32 µg/mL | Anti-bacterial activity (MIC), strain EFM 15-2 ([4]; clinical isolate EFM 15-2): > 32 µg/mL | Anti-bacterial activity (MIC), strain EFM 15-3 ([4]; clinical isolate EFM 15-3): > 32 µg/mL | Anti-bacterial activity (MIC), strain EFM 15-4 ([4]; clinical isolate EFM 15-4): 0.5 µg/mL | Anti-bacterial activity (MIC), strain EFM 15-5 ([4]; clinical isolate EFM 15-5): 0.25 µg/mL | Anti-bacterial activity (MIC), strain EFM 15-6 ([4]; clinical isolate EFM 15-6): 0.25 µg/mL | Anti-bacterial activity (MIC), strain MRSA 15-1 ([5]; clinical isolate MRSA 15-1): 0.125 µg/mL | Anti-bacterial activity (MIC), strain MRSA 15-2 ([5]; clinical isolate MRSA 15-2): 0.25 µg/mL | Anti-bacterial activity (MIC), strain MRSA 15-3 ([5]; clinical isolate MRSA 15-3): 0.125 µg/mL | Anti-bacterial activity (MIC), strain MRSA 15-4 ([5]; clinical isolate MRSA 15-4): 0.25 µg/mL | Anti-bacterial activity (MIC), strain BCA 14-1 ([6]; clinical isolate BCA 14-1): 2 µg/mL | Anti-bacterial activity (MIC), strain BCA 14-4 ([6]; clinical isolate BCA 14-4): 2 µg/mL | Anti-bacterial activity (MIC), strain BCA 14-5 ([6]; clinical isolate BCA 14-5): 0.25 µg/mL | Anti-bacterial activity (MIC), strain BCA 14-6 ([6]; clinical isolate BCA 14-6): 0.25 µg/mL | Anti-bacterial activity (MIC), strain BCA 14-7 ([6]; clinical isolate BCA 14-7): 4 µg/mL | Anti-bacterial activity (MIC), strain BCA 14-8 ([6]; clinical isolate BCA 14-8): 0.5 µg/mL | Anti-bacterial activity (MIC), strain BCA 14-10 ([6]; clinical isolate BCA 14-10): 0.5 µg/mL | Anti-bacterial activity (MIC), strain SPN 16-2 ([7]; clinical isolate SPN 16-2): 0.5 µg/mL | Anti-bacterial activity (MIC), strain SPN 16-4 ([7]; clinical isolate SPN 16-4): 0.5 µg/mL | Anti-bacterial activity (MIC), strain MSSE 15-3 ([8]; clinical isolate MSSE 15-3): 0.125 µg/mL | Anti-bacterial activity (MIC), strain MSSE 15-4 ([8]; clinical isolate MSSE 15-4): 0.25 µg/mL | Anti-bacterial activity (MIC), strain MSSE 15-5 ([8]; clinical isolate MSSE 15-5): 0.25 µg/mL | Anti-bacterial activity (MIC), strain MSSE 15-6 ([8]; clinical isolate MSSE 15-6): 0.125 µg/mL | Anti-bacterial activity (MIC), strain ECO+ 15-1 ([9]; clinical isolate ECO+ 15-1): 16 µg/mL | Anti-bacterial activity (MIC), strain ECO+ 15-2 ([9]; clinical isolate ECO+ 15-2): 32 µg/mL | Anti-bacterial activity (MIC), strain ECO+ 15-3 ([9]; clinical isolate ECO+ 15-3): 16 µg/mL | Anti-bacterial activity (MIC), strain ECO+ 15-4 ([9]; clinical isolate ECO+ 15-4): 16 µg/mL | Anti-bacterial activity (MIC), strain ECO− 15-1 ([9]; clinical isolate ECO− 15-1): 16 µg/mL | Anti-bacterial activity (MIC), strain ECO− 15-2 ([9]; clinical isolate ECO− 15-2): 16 µg/mL | Anti-bacterial activity (MIC), strain ECO− 15-3 ([9]; clinical isolate ECO− 15-3): 32 µg/mL | Anti-bacterial activity (MIC), strain ECO− 15-4 ([9]; clinical isolate ECO− 15-4): 16 µg/mL | Anti-bacterial activity (MIC), strain EFA 15-1 ([10]; clinical isolate EFA 15-1): > 32 µg/mL | Anti-bacterial activity (MIC), strain EFA 15-2 ([10]; clinical isolate EFA 15-2): > 32 µg/mL | Anti-bacterial activity (MIC), strain EFA 15-3 ([10]; clinical isolate EFA 15-3): > 32 µg/mL | Anti-bacterial activity (MIC), strain EFA 15-4 ([10]; clinical isolate EFA 15-4): > 32 µg/mL | Anti-bacterial activity (MIC), strain EFA 15-5 ([10]; clinical isolate EFA 15-5): > 32 µg/mL | Anti-bacterial activity (MIC), strain EFA 15-6 ([10]; clinical isolate EFA 15-6): > 32 µg/mL | Anti-bacterial activity (MIC), strain EFA 15-9 ([10]; clinical isolate EFA 15-9): 4 µg/mL | Anti-bacterial activity (MIC), strain MRSE 15-1 ([11]; clinical isolate MRSE 15-1): 0.25 µg/mL | Anti-bacterial activity (MIC), strain MRSE 15-2 ([11]; clinical isolate MRSE 15-2): 0.25 µg/mL | Anti-bacterial activity (MIC), strain MRSE 15-3 ([11]; clinical isolate MRSE 15-3): 0.25 µg/mL | Anti-bacterial activity (MIC), strain MRSE 15-7 ([11]; clinical isolate MRSE 15-7): 0.25 µg/mL | Anti-bacterial activity (MIC), strain MSSA 15-3 ([12]; clinical isolate MSSA 15-3): 0.25 µg/mL | Anti-bacterial activity (MIC), strain MSSA 15-4 ([12]; clinical isolate MSSA 15-4): 0.125 µg/mL | Anti-bacterial activity (MIC), strain MSSA 15-5 ([12]; clinical isolate MSSA 15-5): 0.125 µg/mL | Anti-bacterial activity (MIC), strain MSSA 15-6 ([12]; clinical isolate MSSA 15-6): 16 µg/mL | inhibition at 30 µM ([13]; Homo sapiens, HCT-116, 72 h, read-out: HCT116 inhibition rate/%): > 50% | HCT116 inhibition rate/% ([13]; 30 µM): 68%
